Data as given in ChEMBL document CHEMBL4261582, “Natural products as inhibitors of Leishmania major dihydroorotate dehydrogenase” (Eur J Med Chem, 2018).

Assays:
[1] = target: Dihydroorotate dehydrogenase (quinone), mitochondrial (Homo sapiens) (UniProt Q02127); assay: Inhibition of human DHODH at 100 uM
[2] = target: T1, Dihydroorotate dehydrogenase (fumarate) (Leishmania major) (UniProt Q4QEW7); assay: Inhibition of recombinant oligo-histidine-tagged Leishmania major DHODH expressed in Escherichia coli BL21(DE3) cells at 100 uM using DHO as substrate measured after 60 secs
T1 sequence (whole entry): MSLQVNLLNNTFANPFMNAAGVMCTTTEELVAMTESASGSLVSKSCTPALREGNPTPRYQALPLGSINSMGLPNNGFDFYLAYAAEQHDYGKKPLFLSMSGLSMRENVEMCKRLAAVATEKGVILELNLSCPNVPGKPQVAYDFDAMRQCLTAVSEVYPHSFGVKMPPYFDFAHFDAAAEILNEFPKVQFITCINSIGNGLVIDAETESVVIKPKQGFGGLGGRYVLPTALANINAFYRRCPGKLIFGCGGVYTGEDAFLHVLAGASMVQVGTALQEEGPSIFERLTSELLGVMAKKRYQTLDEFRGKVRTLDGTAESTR

[3] = target: T2, Dihydroorotate dehydrogenase (fumarate) (Leishmania major, UniProt Q4QEW7); assay: Inhibition of recombinant oligo-histidine-tagged Leishmania major DHODH expressed in Escherichia coli BL21(DE3) cells using DHO as substrate measured after 60 secs; settings: read-out: IC50
T2 sequence (Q4QEW7 whole entry): T1 sequence (whole entry)

Leishmania donovani = assay: Antileishmanial activity against Leishmania donovani MHOM/ET/67/L82 amastigotes after 72 hrs by Alamar Blue assay; type: functional, organism-based; settings: MHOM/ET/67/L82, 72 h
Trypanosoma cruzi = assay: Antitrypanosomal activity against Trypanosoma cruzi Tulahuen C2C4 trypomastigotes infected in rat skeletal myoblasts L-6 cells after 96 hrs by CPRG/Nonidet reagent based spectrophotometric method; type: functional, organism-based; settings: Tulahuen C2C4, L6, 96 h
[4] = test system: Trypanosoma brucei rhodesiense; assay: Antitrypanosomal activity against Trypanosoma brucei rhodesiense STIB 900 trypomastigotes after 72 hrs by Alamar Blue assay; type: functional, organism-based; settings: STIB 900, 72 h
[5] = target: T1, Dihydroorotate dehydrogenase (fumarate) (Leishmania major); assay: Binding affinity to Leishmania major DHODH assessed as change in melting temperature at 100 uM by differential scanning fluorimetry-based ThermoFMN assay
[6] = target: T1, Dihydroorotate dehydrogenase (fumarate) (Leishmania major); assay: Binding affinity to Leishmania major DHODH assessed as change in melting temperature at 500 uM by differential scanning fluorimetry-based ThermoFMN assay
[7] = target: T1, Dihydroorotate dehydrogenase (fumarate) (Leishmania major); assay: Binding affinity to Leishmania major DHODH assessed as change in melting temperature at 1000 uM by differential scanning fluorimetry-based ThermoFMN assay
[8] = target: T1, Dihydroorotate dehydrogenase (fumarate) (Leishmania major); assay: Binding affinity to Leishmania major DHODH assessed as change in melting temperature at 100 uM by SYPRO orange dye-based differential scanning fluorimetry
[9] = target: T1, Dihydroorotate dehydrogenase (fumarate) (Leishmania major); assay: Binding affinity to Leishmania major DHODH assessed as change in melting temperature at 500 uM by SYPRO orange dye-based differential scanning fluorimetry
[10] = target: T1, Dihydroorotate dehydrogenase (fumarate) (Leishmania major); assay: Binding affinity to Leishmania major DHODH assessed as change in melting temperature at 1000 uM by SYPRO orange dye-based differential scanning fluorimetry
Leishmania amazonensis [11] = assay: Antileishmanial activity against Leishmania amazonensis MHOM/77BR/LTB0016 promastigotes after 72 hrs by MTT assay; type: functional, organism-based; settings: MHOM/77BR/LTB0016, 72 h
Leishmania amazonensis [12] = assay: Antileishmanial activity against Leishmania amazonensis MHOM/77BR/LTB0016 amastigotes infected in mouse peritoneal macrophages after 48 hrs by Giemsa staining-based assay; type: functional, organism-based; settings: MHOM/77BR/LTB0016, 48 h
Leishmania amazonensis [13] = assay: Antileishmanial activity against Leishmania amazonensis promastigotes; type: functional, organism-based
Leishmania amazonensis [14] = assay: Antileishmanial activity against Leishmania amazonensis WHOM/BR/75/Josefa promastigotes after 72 hrs by Neubauer chamber method; type: functional, organism-based
Leishmania amazonensis [15] = assay: Antileishmanial activity against Leishmania amazonensis WHOM/BR/75/Josefa amastigotes after 72 hrs by Neubauer chamber method; type: functional, organism-based
Leishmania braziliensis = assay: Antileishmanial activity against Leishmania braziliensis H3227 MHOM/BR/94/H-3227 promastigotes after 72 hrs by MTT assay; type: functional, organism-based; settings: H3227 MHOM/BR/94/H-3227, 72 h

Chain of Dihydroorotate dehydrogenase (quinone), mitochondrial (Homo sapiens) (Q02127 whole entry): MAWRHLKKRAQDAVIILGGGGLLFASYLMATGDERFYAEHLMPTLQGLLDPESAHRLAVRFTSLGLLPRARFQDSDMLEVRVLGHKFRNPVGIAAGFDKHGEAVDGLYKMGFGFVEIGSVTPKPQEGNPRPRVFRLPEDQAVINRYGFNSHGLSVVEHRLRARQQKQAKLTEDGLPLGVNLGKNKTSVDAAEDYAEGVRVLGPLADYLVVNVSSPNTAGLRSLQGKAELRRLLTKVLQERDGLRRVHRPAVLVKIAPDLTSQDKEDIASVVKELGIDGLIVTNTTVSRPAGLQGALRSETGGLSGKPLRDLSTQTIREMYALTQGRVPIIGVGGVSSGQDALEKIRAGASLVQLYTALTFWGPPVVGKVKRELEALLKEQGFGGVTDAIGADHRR

| Structure (SMILES) | IC50 [3] [µM] | IC50 (Trypanosoma cruzi) [µM] | IC50 [4] [µM] | IC50 (Leishmania donovani) [µM] | other results |
| --- | --- | --- | --- | --- | --- |
| O=c1cc(-c2ccc(O)cc2)oc2cc(O[C@@H]3O[C@H](CO)[C@@H](O)[C@H](O)[C@H]3O)cc(O)c12 [APIGETRIN] | 105 | 69.4 | 52.5 | 4.86 | inhibition [1]: 10%; inhibition [2]: 47% |
| C=C1C(=O)O[C@@H]2/C=C(/CO)C3=CC(=O)[C@@](C)(C[C@@H](OC(=O)/C(C)=C/C)[C@@H]12)O3 [BUDLEIN A] | 263 |  |  |  |  |
| O=C(O)/C=C/c1ccc(O)c(O)c1 [CAFFEIC ACID] | 1750 | 167 | 6.11 | 31.1 | IC50 (Leishmania amazonensis [11]): 5.2 µM; IC50 (Leishmania amazonensis [12]): 16 µM |
| O=C(O)/C=C/c1ccccc1 [CINNAMIC ACID] | 392 | 203 | 223 | 37.8 | IC50 (Leishmania amazonensis [13]): 15.5 µM |
| O=c1c(O)c(-c2ccc(O)cc2)oc2cc(O)cc(O)c12 [KAEMPFEROL] | 389 | 83.5 | 32.2 | 10.1 |  |
| O=C(O)/C=C/c1ccccc1O [O-COUMARIC ACID] | 806 | 183 | 265 | 36.6 | IC50 (Leishmania amazonensis [12]): 13.8 µM |
| O=c1c(O)c(-c2ccc(O[C@@H]3O[C@H](CO)[C@@H](O)[C@H](O)[C@H]3O)c(O)c2)oc2cc(O)cc(O)c12 [SPIRAEOSIDE] | 163 |  |  |  | inhibition [1]: 16%; inhibition [2]: 35% |
| COc1ccc(-c2oc3cc(O)cc(O)c3c(=O)c2O)cc1O [TAMARIXETIN] | 93.7 | 20.2 | 46.8 | 53.1 | inhibition [1]: 29%; inhibition [2]: 46% |
| O=c1ccc2ccc(O)cc2o1 [UMBELLIFERONE] | 467 | 555 | 319 | 172 |  |

Now from value to molecule, other results behind:

| IC50 [3] [µM] | IC50 (Trypanosoma cruzi) [µM] | IC50 [4] [µM] | Structure (SMILES) | IC50 (Leishmania donovani) [µM] | other results |
| --- | --- | --- | --- | --- | --- |
| 872 |  |  | C=C1C(=O)O[C@@H]2/C=C(/C)C3=CC(=O)[C@@](C)(C[C@@H](OC(=O)/C(C)=C/C)[C@@H]12)O3 [ATRIPLICIOLIDTIGLATE] |  | ΔTm [5]: -0.35 °C; ΔTm [6]: -0.85 °C; ΔTm [7]: -1.21 °C; ΔTm [8]: -0.47 °C; ΔTm [9]: -2.52 °C; ΔTm [10]: -5.97 °C |
| 413 | 155 | 428 | COc1cc(/C=C/C(=O)O)ccc1O [FERULATE] | 155 | IC50 (Leishmania amazonensis [11]): 1.7 µM; IC50 (Leishmania amazonensis [12]): 7.9 µM |
| 481 | 73.3 | 61.1 | O=c1c(O)c(-c2ccccc2)oc2cc(O)cc(O)c12 [GALANGIN] | 5.55 |  |
| 31.5 |  |  | C=C1C[C@@]23CC[C@H]4[C@@](C)(CCC[C@@]4(C)C(=O)O)[C@@H]2CC[C@@H]1C3 [KAURENOIC ACID] |  | inhibition [1]: 28%; inhibition [2]: 40%; IC50 (Leishmania amazonensis [14]): 93.3 µM; IC50 (Leishmania amazonensis [15]): 11.7 µM |
|  | 94.3 | 50 | O=c1c(O)c(-c2cc(O)c(O)c(O)c2)oc2cc(O)cc(O)c12 [MYRICETIN] | 4.08 | inhibition [1]: 41%; inhibition [2]: 67% |
| 922 |  | 112 | O=C(O)c1ccc(O)c(O)c1 [PROTOCATECHUIC ACID] |  |  |
| 1530 | 49.1 | 6.9 | C[C@@H]1O[C@@H](OC[C@H]2O[C@@H](Oc3c(-c4ccc(O)c(O)c4)oc4cc(O)cc(O)c4c3=O)[C@H](O)[C@@H](O)[C@@H]2O)[C@H](O)[C@H](O)[C@H]1O [RUTIN] | 49.1 | IC50 (Leishmania amazonensis [12]): 4.4 µM |
| 262 |  |  | COc1ccc(-c2oc3cc(O)c(OC)c(O)c3c(=O)c2OC)cc1 [SANTIN] |  |  |
| 796 |  |  | C=C1C(=O)O[C@@H]2C[C@H](C)[C@@]3(O)C[C@H](O)[C@@](C)(C[C@@H](OC(=O)C(C)C)[C@@H]12)O3 [TAGITININ A] |  | ΔTm [5]: -0.26 °C; ΔTm [6]: -0.32 °C; ΔTm [7]: -0.52 °C; ΔTm [8]: -0.07 °C; ΔTm [9]: -0.06 °C; ΔTm [10]: -0.19 °C; IC50 (Leishmania braziliensis): 20.4 µM |
| 426 |  |  | C=C1C(=O)O[C@@H]2/C=C(/C)C(=O)/C=C/[C@](C)(O)C[C@@H](OC(=O)C(C)C)[C@@H]12 [TAGITININ C] |  | IC50 (Leishmania braziliensis): 9.2 µM |
